Measurements from paper PMC2722590, “Production of N-acetyl-D-neuraminic acid using two sequential enzymes overexpressed as double-tagged fusion proteins” (BMC Biotechnology, 2009).

Biological target: T1, GST-GlcNAc 2-epimerase-5D (Synechocystis sp. PCC 6803, UniProt P74124)
T1 construct: gene slr1975; 1209 bp PCR fragment
T1 sequence (P74124 1-391): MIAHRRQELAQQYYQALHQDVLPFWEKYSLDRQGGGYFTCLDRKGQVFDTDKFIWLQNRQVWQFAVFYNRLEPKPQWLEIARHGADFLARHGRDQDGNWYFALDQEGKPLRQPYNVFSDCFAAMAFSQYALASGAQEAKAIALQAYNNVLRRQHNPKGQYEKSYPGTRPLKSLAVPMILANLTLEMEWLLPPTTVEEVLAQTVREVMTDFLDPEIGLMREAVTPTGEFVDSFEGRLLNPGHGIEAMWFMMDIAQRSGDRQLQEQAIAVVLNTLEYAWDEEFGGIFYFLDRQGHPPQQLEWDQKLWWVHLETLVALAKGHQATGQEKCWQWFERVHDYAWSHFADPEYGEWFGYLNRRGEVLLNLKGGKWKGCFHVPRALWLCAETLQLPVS
Assay: enzyme inhibition kinetics
Assay type: biochemical
Conditions: read-out: inhibition constant

`CC(=O)C(=O)O` [pyruvate] gave a Ki of 31 mM.
